Results as given in patent US8247211B2, “Glycopeptide antibiotics” (American Cyanamid Company, priority 2001, dated 2012).
Converted amounts (≈) assume the structure as drawn.

How the values were obtained:
Assay in all cases: In vitro antibacterial evaluation: minimum inhibitory concentration (MIC), broth dilution method
Format in all cases: cell-based
[1] = tested on: Enterococcus sp.
In short: (§1)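 Inoculum: 5×10^5 CFU/mL. Range: 64-0.06 μg/mL. Medium: Muller-Hinton II […]; NCCLS M7-A2 broth dilution. Endpoint: lowest concentration inhibiting growth. Strains include methicillin-, penicillin- and/or vancomycin-resistant clinical isolates.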

[2] = tested on: Escherichia coli
In short: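 First, organisms are seeded at 5×10^5 CFU/mL into Muller-Hinton II […]. Next, antibiotic is applied across 64-0.06 μg/mL by broth dilution (NCCLS M7-A2). Finally, the lowest inhibitory concentration is recorded as MIC.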

[3] = tested on: Staphylococcus sp.; settings: broth dilution, 18 hours at 35° C.
In short: as §1

[4] = tested on: Streptococcus sp.
In short: as §1

[5] = broth dilution, inoculum 5×10^5 CFU/mL, 18 hours at 35° C.

CC(c1ccccc1)C1NC(=O)CNC(=O)C(CO)NC(=O)C(C(O)C2CNC(=N)N2C2OC(CO)C(O)C(O)C2O)NC(=O)C(C(O)C2CNC(=N)N2)NC(=O)C(Cc2ccc(OC3OC(CO)C(OC4OC(CO)C(O)C5OC(c6ccc(-c7ccsc7)cc6)OC45)C(O)C3O)cc2)NC1=O (stereo not drawn) [Example 164a, Cyclo[glycyl-β-methylphenylalanyl-O-[4-O-[2,3-O-[4-(3-thienyl)benzylidene]hexopyranosyl]-hexopyranosyl]tyrosyl-3-(2-iminoimidazolidin-4-yl)seryl-3-(3-hexopyranosyl-2-iminoimidazolidin-4-yl)serylseryl]] was tested, and the “MIC Enterococcus avium (GC 4558)” value [1, 5] was 8 µg/mL (≈ 5.46 µM), the “MIC Enterococcus faecalis (ATCC 29212)” value [1, 5] was 16 µg/mL (≈ 10.9 µM) and the “MIC Enterococcus faecalis (GC 2242)” value [1, 5] was 16 µg/mL (≈ 10.9 µM). For the same molecule, the “MIC Enterococcus faecalis (GC 2691)” value [1, 5] was 16 µg/mL (≈ 10.9 µM), the “MIC Enterococcus faecalis (GC 3059)” value [1, 5] was 16 µg/mL (≈ 10.9 µM) and the “MIC Enterococcus faecalis (GC 4552)” value [1, 5] was 16 µg/mL (≈ 10.9 µM). For the same molecule, the “MIC Enterococcus faecalis (GC 4553)” value [1, 5] was 16 µg/mL (≈ 10.9 µM), the “MIC Enterococcus faecalis (GC 4554)” value [1, 5] was 16 µg/mL (≈ 10.9 µM) and the “MIC Enterococcus faecalis (GC 6189)” value [1, 5] was 16 µg/mL (≈ 10.9 µM). For the same molecule, the “MIC Enterococcus faecium (GC 2243)” value [1, 5] was 8 µg/mL (≈ 5.46 µM), the “MIC Enterococcus faecium (GC 4556)” value [1, 5] was 16 µg/mL (≈ 10.9 µM) and the “MIC Enterococcus faecium (GC 4557)” value [1, 5] was 4 µg/mL (≈ 2.73 µM). For the same molecule, the “MIC Enterococcus faecalis (ATCC 29212)” value ([1]; strain ATCC 29212) was 16 µg/mL (≈ 10.9 µM), the “MIC Enterococcus faecalis (GC 2242)” value ([1]; strain GC 2242) was 16 µg/mL (≈ 10.9 µM) and the “MIC Enterococcus faecium (GC 2243)” value ([1]; strain GC 2243) was 8 µg/mL (≈ 5.46 µM). The “MIC Enterococcus faecalis (GC 2691)” value ([1]; strain GC 2691) was 16 µg/mL (≈ 10.9 µM), the “MIC Enterococcus faecalis (GC 3059)” value ([1]; strain GC 3059) was 16 µg/mL (≈ 10.9 µM) and the “MIC Enterococcus faecalis (GC 4552)” value ([1]; strain GC 4552) was 16 µg/mL (≈ 10.9 µM). The “MIC Enterococcus faecalis (GC 4553)” value ([1]; strain GC 4553) was 16 µg/mL (≈ 10.9 µM), the “MIC Enterococcus faecalis (GC 4554)” value ([1]; strain GC 4554) was 16 µg/mL (≈ 10.9 µM) and the “MIC Enterococcus faecium (GC 4556)” value ([1]; strain GC 4556) was 16 µg/mL (≈ 10.9 µM). For the same molecule, the “MIC Enterococcus faecium (GC 4557)” value ([1]; strain GC 4557) was 4 µg/mL (≈ 2.73 µM), the “MIC Enterococcus avium (GC 4558)” value ([1]; strain GC 4558) was 8 µg/mL (≈ 5.46 µM) and the “MIC Enterococcus faecalis (GC 6189)” value ([1]; strain GC 6189) was 16 µg/mL (≈ 10.9 µM). The “MIC Escherichia coli (ATCC 25922)” value ([2]; strain ATCC 25922) was 32 µg/mL (≈ 21.8 µM), the “MIC Escherichia coli (GC 4559)” value ([2]; strain GC 4559) was 32 µg/mL (≈ 21.8 µM) and the “MIC Escherichi coli (GC 4560)” value ([2]; strain GC 4560) was 8 µg/mL (≈ 5.46 µM). The “MIC Coagulase Negative Staphylococcus (GC 4547)” value ([3]; 5×10^5 CFU/mL) was 8 µg/mL (≈ 5.46 µM), the “MIC Coagulase Negative Staphylococcus (GC 4548)” value ([3]; 5×10^5 CFU/mL) was 4 µg/mL (≈ 2.73 µM) and the “MIC Coagulase Negative Staphylococcus (GC 4549)” value ([3]; 5×10^5 CFU/mL) was 4 µg/mL (≈ 2.73 µM). The “MIC Coagulase Negative Staphylococcus (GC 4551)” value ([3]; 5×10^5 CFU/mL) was 8 µg/mL (≈ 5.46 µM), the “MIC Coagulase Negative Staphylococcus (GC 6257)” value ([3]; 5×10^5 CFU/mL) was 4 µg/mL (≈ 2.73 µM) and the “MIC Staphylococcus aureus (ATCC 29213)” value ([3]; 5×10^5 CFU/mL) was 8 µg/mL (≈ 5.46 µM). The “MIC Staphylococcus aureus (GC 1131)” value ([3]; 5×10^5 CFU/mL) was 8 µg/mL (≈ 5.46 µM), the “MIC Staphylococcus aureus (GC 3051)” value ([3]; 5×10^5 CFU/mL) was 8 µg/mL (≈ 5.46 µM) and the “MIC Staphylococcus aureus (GC 3053)” value ([3]; 5×10^5 CFU/mL) was 8 µg/mL (≈ 5.46 µM). The “MIC Staphylococcus aureus (GC 4541)” value ([3]; 5×10^5 CFU/mL) was 8 µg/mL (≈ 5.46 µM), the “MIC Staphylococcus aureus (GC 4542)” value ([3]; 5×10^5 CFU/mL) was 16 µg/mL (≈ 10.9 µM) and the “MIC Staphylococcus aureus (GC 4544)” value ([3]; 5×10^5 CFU/mL) was 8 µg/mL (≈ 5.46 µM). The “MIC Staphylococcus aureus (GC 4545)” value ([3]; 5×10^5 CFU/mL) was 8 µg/mL (≈ 5.46 µM), the “MIC Staphylococcus aureus-SMITH (GC 4543)” value ([3]; 5×10^5 CFU/mL) was 8 µg/mL (≈ 5.46 µM) and the “MIC Staphylococcus haemolyticus (GC 4546)” value ([3]; 5×10^5 CFU/mL) was 4 µg/mL (≈ 2.73 µM). For the same molecule, the “MIC Staphylococcus aureus (ATCC 29213)” value ([3]; strain ATCC 29213) was 8 µg/mL (≈ 5.46 µM), the “MIC Staphylococcus aureus (GC 1131)” value ([3]; strain GC 1131) was 8 µg/mL (≈ 5.46 µM) and the “MIC Staphylococcus aureus (GC 3051)” value ([3]; strain GC 3051) was 8 µg/mL (≈ 5.46 µM). For the same molecule, the “MIC Staphylococcus aureus (GC 3053)” value ([3]; strain GC 3053) was 8 µg/mL (≈ 5.46 µM), the “MIC Staphylococcus aureus (GC 4541)” value ([3]; strain GC 4541) was 8 µg/mL (≈ 5.46 µM) and the “MIC Staphylococcus aureus (GC 4542)” value ([3]; strain GC 4542) was 16 µg/mL (≈ 10.9 µM). For the same molecule, the “MIC Staphylococcus aureus-SMITH (GC 4543)” value ([3]; strain GC 4543) was 8 µg/mL (≈ 5.46 µM), the “MIC Staphylococcus aureus (GC 4544)” value ([3]; strain GC 4544) was 8 µg/mL (≈ 5.46 µM) and the “MIC Staphylococcus aureus (GC 4545)” value ([3]; strain GC 4545) was 8 µg/mL (≈ 5.46 µM). The “MIC Staphylococcus haemolyticus (GC 4546)” value ([3]; strain GC 4546) was 4 µg/mL (≈ 2.73 µM), the “MIC Coagulase Negative Staphylococcus (GC 4547)” value ([3]; strain GC 4547) was 8 µg/mL (≈ 5.46 µM) and the “MIC Coagulase Negative Staphylococcus (GC 4548)” value ([3]; strain GC 4548) was 4 µg/mL (≈ 2.73 µM). The “MIC Coagulase Negative Staphylococcus (GC 4549)” value ([3]; strain GC 4549) was 4 µg/mL (≈ 2.73 µM), the “MIC Coagulase Negative Staphylococcus (GC 4551)” value ([3]; strain GC 4551) was 8 µg/mL (≈ 5.46 µM) and the “MIC Coagulase Negative Staphylococcus (GC 6257)” value ([3]; strain GC 6257) was 4 µg/mL (≈ 2.73 µM). The “MIC Streptococcus agalactiae (GC 4564)” value [4, 5] was 1 µg/mL (≈ 0.682 µM), the “MIC Streptococcus pneumoniae (ATCC 6301)” value [4, 5] was 1 µg/mL (≈ 0.682 µM) and the “MIC Streptococcus pneumoniae (GC 1894)” value [4, 5] was 0.25 µg/mL (≈ 0.171 µM). The “MIC Streptococcus pneumoniae (GC 4565)” value [4, 5] was 1 µg/mL (≈ 0.682 µM), the “MIC Streptococcus pyogenes (GC 4563)” value [4, 5] was 0.5 µg/mL (≈ 0.341 µM) and the “MIC Streptococcus pneumoniae (ATCC 6301)” value ([4]; strain ATCC 6301) was 1 µg/mL (≈ 0.682 µM). The “MIC Streptococcus pneumoniae (GC 1894)” value ([4]; strain GC 1894) was 0.25 µg/mL (≈ 0.171 µM), the “MIC Streptococcus pyogenes (GC 4563)” value ([4]; strain GC 4563) was 0.5 µg/mL (≈ 0.341 µM) and the “MIC Streptococcus agalactiae (GC 4564)” value ([4]; strain GC 4564) was 1 µg/mL (≈ 0.682 µM). For the same molecule, the “MIC Streptococcus pneumoniae (GC 4565)” value ([4]; strain GC 4565) was 1 µg/mL (≈ 0.682 µM).
